Assay results as given in the Kinase Knowledgebase extract (Sharma et al. 2016).

These compounds were tested against CDK2 (human) (UniProt P24941) (assay: Enzyme Assay).

Cc1cc(NCCN(C)C)ccc1NC(=O)c1ccc(C(=O)Nc2ccc(-n3cncn3)cc2)s1 and Cc1cc(N(C)CCN(C)C)ccc1NC(=O)c1ccc(C(=O)Nc2ccc(-n3cncn3)cc2)s1 cannot be ordered by IC50: 1 to 40 µM for the first, at most 1 µM for the second.

COc1ccc(NC(=O)c2ccc(C(=O)Nc3ccc(N4CCOCC4)cc3)s2)c(C)c1 and COc1ccc(NC(=O)c2ccc(C(=O)Nc3ccc(N4CCCCC4)cc3)s2)c(C)c1 cannot be ordered by IC50: at least 40 µM for the first, at least 40 µM for the second.

O=C(Nc1ccc(-n2cncn2)cc1)c1ccc(C(=O)N2CCCC2c2cccnc2)s1 (stereo not drawn) and COc1cccc(C2CCN(C(=O)c3ccc(C(=O)Nc4ccc(-n5cncn5)cc4)s3)C2)c1 (stereo not drawn) cannot be ordered by IC50: at least 40 µM for the first, at least 40 µM for the second.

COc1ccc(NC(=O)c2ccc(C(=O)Nc3ccc4c(c3)OCO4)s2)c(C)c1 and COc1ccc(NC(=O)c2ccc(C(=O)Nc3ccc(C#N)cc3)s2)c(C)c1 cannot be ordered by IC50: at least 40 µM for the first, at least 40 µM for the second.

COc1ccc(N(C)C(=O)c2ccc(C(=O)Nc3ccc(-n4cncn4)cc3)s2)c(C)c1 and COc1ccc(NC(=O)c2ccc(C(=O)Nc3ccc(-n4cncn4)cc3)s2)c(C(=O)O)c1 fall in the same range of IC50: 1 to 40 µM for the first, 1 to 40 µM for the second.

COc1ccc(C(=O)Nc2ccc(C(=O)N3CCC(c4ccncc4)C3)s2)c(C)c1 (stereo not drawn) and COc1ccc(C(=O)Nc2ccc(C(=O)N3CCC(c4ccccn4)C3)s2)c(C)c1 (stereo not drawn) cannot be ordered by IC50: at least 40 µM for the first, at least 40 µM for the second.

CN(Cc1ccco1)C(=O)c1ccc(C(=O)Nc2ccc(-n3cncn3)cc2)s1 and O=C(Nc1ccc(-n2cncn2)cc1)c1ccc(C(=O)Nc2cc(-c3ccco3)n[nH]2)s1 cannot be ordered by IC50: at least 40 µM for the first, at least 40 µM for the second.

Going from Cc1ccccc1C(=O)Nc1ccc(C(=O)Nc2ccc(-n3cncn3)cc2)s1 to Cc1cccc(NC(=O)c2ccc(C(=O)Nc3ccc(-n4cncn4)cc3)s2)n1, the IC50 rises from at most 1 µM to at least 40 µM.

CN1CCC(N(C)C(=O)c2ccc(C(=O)Nc3ccc(-n4cncn4)c(F)c3)o2)CC1 and CN1CCC(NC(=O)c2ccc(C(=O)Nc3ccc(-n4cncn4)c(F)c3)o2)CC1 cannot be ordered by IC50: at least 40 µM for the first, at least 40 µM for the second.

Cc1cc(N[C@H]2CCNC2)ccc1NC(=O)c1ccc(C(=O)Nc2ccc(-n3cncn3)cc2)s1 and CNCc1ccc(NC(=O)c2ccc(C(=O)Nc3ccc(-n4cncn4)cc3)s2)c(C)c1 cannot be ordered by IC50: at most 1 µM for the first, 1 to 40 µM for the second.

Going from COc1ccc(NCc2ccc(C(=O)Nc3ccc(-n4cncn4)cc3)o2)c(C)c1 to Cc1ccccc1NC(=O)c1ccc(C(=O)Nc2ccc(-n3cncn3)cc2)o1, the IC50 falls from at least 40 µM to at most 1 µM.

O=C(Nc1ccc(-n2cncn2)c(F)c1)c1ccc(C(=O)N[C@H]2CC[C@H](O)CC2)o1 and C[C@@H](NC(=O)c1ccc(C(=O)Nc2ccc(-n3cncn3)c(F)c2)o1)C1CCCCC1 fall in the same range of IC50: 1 to 40 µM for the first, 1 to 40 µM for the second.

COc1ccc(NC(=O)c2ccc(C(=O)Nc3ccc(-c4nc[nH]n4)c(F)c3)o2)c(C)c1 and COc1ccc(NC(=O)c2ccc(C(=O)Nc3ccc(-c4nc[nH]n4)c(F)c3)s2)c(C)c1 cannot be ordered by IC50: at most 1 µM for the first, at most 1 µM for the second.

Compared with CN(C(=O)c1ccc(C(=O)Nc2ccc(-n3cncn3)cc2)s1)C1CCCCC1, O=C(NCC1CCCCC1)c1ccc(C(=O)Nc2ccc(-n3cncn3)cc2)s1 is higher in IC50: at most 1 µM for the first, at least 40 µM for the second. The first is the more potent here.

O=C(Nc1ccc(-n2cncn2)cc1)c1ccc(C(=O)NC2CCCC2)s1 and O=C(Nc1ccc(-n2cncn2)cc1)c1ccc(C(=O)NC2CCNCC2)s1 cannot be ordered by IC50: 1 to 40 µM for the first, at least 40 µM for the second.

COc1ccc(NC(=O)c2ccc(C(=O)Nc3ccc(N4CCOCC4)nc3)s2)c(C)c1 and COc1ccc(NC(=O)c2ccc(C(=O)Nc3ccc(N4CCNCC4)cc3)s2)c(C)c1 cannot be ordered by IC50: at least 40 µM for the first, at least 40 µM for the second.

COc1ccc(NC(=O)c2ccc(C(=O)Nc3ccc(-n4cncn4)c(F)c3)s2)c(C)c1 and CNCc1ccc(NC(=O)c2ccc(C(=O)Nc3ccc(-n4cncn4)c(F)c3)s2)c(C)c1 cannot be ordered by IC50: at most 1 µM for the first, 1 to 40 µM for the second.

COc1ccc(NC(=O)c2ccc(C(=O)N3CCC(c4ccccn4)C3)s2)c(C)c1 (stereo not drawn) and COc1ccc(C(=O)Nc2ccc(C(=O)N3CCC(c4ccccn4)C3)o2)c(C)c1 (stereo not drawn) cannot be ordered by IC50: 1 to 40 µM for the first, at least 40 µM for the second.

O=C(Nc1ccc(-n2cncn2)cc1)c1ccc(C(=O)NC2Cc3ccccc3C2)s1 and O=C(Nc1ccc(-n2cncn2)cc1)c1ccc(C(=O)Nc2ccccn2)s1 cannot be ordered by IC50: at least 40 µM for the first, at least 40 µM for the second.

O=C(Nc1ccc(-n2cncn2)cc1)c1ccc(C(=O)N2CCN(C3CCCC3)CC2)s1 and CN1CCN(C(=O)c2ccc(C(=O)Nc3ccc(-n4cncn4)cc3)s2)CC1 cannot be ordered by IC50: at least 40 µM for the first, at least 40 µM for the second.

O=C(Nc1ccc(-n2cncn2)cc1)c1ccc(C(=O)N2CCOCC2)s1 and CN1CCC(NC(=O)c2ccc(C(=O)Nc3ccc(-n4cncn4)cc3)s2)CC1 cannot be ordered by IC50: at least 40 µM for the first, at least 40 µM for the second.

O=C(Nc1ccc(-n2cncn2)c(F)c1)c1ccc(C(=O)N2CCOCC2)o1 and CN(C)C(=O)c1ccc(C(=O)Nc2ccc(-n3cncn3)c(F)c2)o1 cannot be ordered by IC50: at least 40 µM for the first, at least 40 µM for the second.

CN1CCCC1CCNC(=O)c1ccc(C(=O)Nc2ccc(-n3cncn3)cc2)s1 (stereo not drawn) and O=C(NCCN1CCCCC1)c1ccc(C(=O)Nc2ccc(-n3cncn3)cc2)s1 cannot be ordered by IC50: at least 40 µM for the first, at least 40 µM for the second.

O=C(Nc1ccc(-n2cncn2)cc1)c1ccc(C(=O)Nc2nc3ccccc3s2)s1 and O=C(Nc1ccc(-n2cncn2)cc1)c1ccc(C(=O)Nc2cccc(Cl)c2)s1 fall in the same range of IC50: 1 to 40 µM for the first, 1 to 40 µM for the second.

COc1ccc(NC(=O)c2ccc(C(=O)Nc3ccc4sc(SC)nc4c3)s2)c(C)c1 and COc1ccc(NC(=O)c2ccc(C(=O)Nc3ccc(CN)cc3)s2)c(C)c1 cannot be ordered by IC50: at least 40 µM for the first, at least 40 µM for the second.

CN(C)CCNC(=O)c1ccc(C(=O)Nc2ccc(-n3cncn3)cc2)s1 and CC(CN(C)C)NC(=O)c1ccc(C(=O)Nc2ccc(-n3cncn3)cc2)s1 (stereo not drawn) cannot be ordered by IC50: at least 40 µM for the first, at least 40 µM for the second.

COc1ccc(NC(=O)c2ccc(C(=O)Nc3ccc(-n4cncn4)cc3)s2)cc1O and COc1ccc(NC(=O)c2ccc(C(=O)Nc3ccc(-n4cncn4)cc3)s2)cc1Cl cannot be ordered by IC50: at least 40 µM for the first, 1 to 40 µM for the second.

Compared with Cc1cc(Cn2ccnc2)ccc1NC(=O)c1ccc(C(=O)Nc2ccc(-n3cncn3)cc2)s1, COc1ccc(NC(=O)c2ccc(C(=O)Nc3ccc(Cn4ccnc4)cc3)s2)c(C)c1 is higher in IC50: at most 1 µM for the first, at least 40 µM for the second.

Cn1nc(-c2ccc(Cl)cc2)cc1NC(=O)c1ccc(C(=O)Nc2ccc(-n3cncn3)cc2)s1 and Cn1nc(-c2ccccc2)cc1NC(=O)c1ccc(C(=O)Nc2ccc(-n3cncn3)cc2)s1 cannot be ordered by IC50: at least 40 µM for the first, 1 to 40 µM for the second.

CN(C)CCNC(=O)c1ccc(C(=O)Nc2ccc(-n3cncn3)c(F)c2)o1 and O=C(Nc1ccccc1)c1ccc(C(=O)Nc2ccc(-n3cncn3)cc2)o1 cannot be ordered by IC50: at least 40 µM for the first, 1 to 40 µM for the second.

First: O=C(Nc1ccc(-n2cncn2)cc1)c1ccc(NC(=O)C2CCCCC2)o1
Second: O=C(Nc1ccc(-n2cncn2)cc1)c1ccc(NC(=O)C2CCCCC2)s1
The IC50 of the first is higher: at least 40 µM for the first, at most 1 µM for the second. The second is the more potent here.

CC(=O)N1CCC(NC(=O)c2ccc(C(=O)Nc3ccc(-n4cncn4)cc3)s2)CC1 and O=C(NC[C@@H]1CCCO1)c1ccc(C(=O)Nc2ccc(-n3cncn3)cc2)s1 cannot be ordered by IC50: 1 to 40 µM for the first, at least 40 µM for the second.

COc1ccc(NC(=O)c2ccc(C(=O)Nc3ccc(-c4c(C)noc4C)cc3)s2)c(C)c1 and COc1ccc(NC(=O)c2ccc(C(=O)Nc3ccc(-c4cnco4)cc3)s2)c(C)c1 cannot be ordered by IC50: at least 40 µM for the first, at least 40 µM for the second.

O=C(Nc1ccc(C(=O)Nc2ccc(-n3cncn3)cc2)o1)c1ccccc1 and O=C(NC[C@H](O)c1ccccc1)c1ccc(C(=O)Nc2ccc(-n3cncn3)cc2)s1 cannot be ordered by IC50: at least 40 µM for the first, at least 40 µM for the second.

Cc1cc(OCCN2CCN(C)CC2)ccc1NC(=O)c1ccc(C(=O)Nc2ccc(-n3cncn3)cc2)s1 and Cc1cc(N2CCN(C)CC2)ccc1NC(=O)c1ccc(C(=O)Nc2ccc(-n3cncn3)cc2)s1 cannot be ordered by IC50: at most 1 µM for the first, at most 1 µM for the second.

O=C(NCCc1ccccn1)c1ccc(C(=O)Nc2ccc(-n3cncn3)cc2)s1 and O=C(NCc1ccccn1)c1ccc(C(=O)Nc2ccc(-n3cncn3)cc2)s1 cannot be ordered by IC50: at least 40 µM for the first, at least 40 µM for the second.

O=C(NCc1ccncc1)c1ccc(C(=O)Nc2ccc(-n3cncn3)cc2)s1 and O=C(NCCc1cccnc1)c1ccc(C(=O)Nc2ccc(-n3cncn3)cc2)s1 cannot be ordered by IC50: at least 40 µM for the first, 1 to 40 µM for the second.

COc1ccc(NC(=O)c2ccc(C(=O)Nc3ccc(-n4ccnc4)cc3)s2)c(C)c1 and COc1ccc(C(=O)Nc2ccc(C(=O)Nc3ccc(-n4ccnc4)cc3)o2)c(C)c1 cannot be ordered by IC50: at least 40 µM for the first, at least 40 µM for the second.

Cc1cnc(CNC(=O)c2ccc(C(=O)Nc3ccc(-n4cncn4)cc3)s2)cn1 and Cc1cc(CNC(=O)c2ccc(C(=O)Nc3ccc(-n4cncn4)cc3)s2)no1 cannot be ordered by IC50: at least 40 µM for the first, at least 40 µM for the second.

Cc1ccsc1CNC(=O)c1ccc(C(=O)Nc2ccc(-n3cncn3)cc2)s1 and Cn1cnc(CCNC(=O)c2ccc(C(=O)Nc3ccc(-n4cncn4)cc3)s2)c1 cannot be ordered by IC50: 1 to 40 µM for the first, at least 40 µM for the second.

CCOc1ccccc1NC(=O)c1ccc(C(=O)Nc2ccc(-n3cncn3)c(F)c2)s1 and COc1ccccc1NC(=O)c1ccc(C(=O)Nc2ccc(-n3cncn3)c(F)c2)s1 cannot be ordered by IC50: at least 40 µM for the first, at least 40 µM for the second.

Cn1nc(-c2cccs2)cc1NC(=O)c1ccc(C(=O)Nc2ccc(-n3cncn3)cc2)s1 and COc1ccc(Cl)cc1NC(=O)c1ccc(C(=O)Nc2ccc(-n3cncn3)cc2)s1 cannot be ordered by IC50: at least 40 µM for the first, 1 to 40 µM for the second.

COc1ccc(NC(=O)c2ccc(C(=O)N3CCC(Oc4cnccn4)CC3)s2)c(C)c1 and COc1ccc(C(=O)Nc2ccc(C(=O)N3CCC(Oc4cnccn4)CC3)o2)c(C)c1 cannot be ordered by IC50: 1 to 40 µM for the first, at least 40 µM for the second.

O=C(Nc1ccc(-n2cncn2)c(F)c1)c1ccc(C(=O)Nc2ccccc2N2CCOCC2)s1 and O=C(Nc1ccc(-n2cncn2)c(F)c1)c1ccc(C(=O)Nc2ccccc2-c2ccccc2)s1 cannot be ordered by IC50: at least 40 µM for the first, 1 to 40 µM for the second.

NS(=O)(=O)c1ccc(NC(=O)c2ccc(C(=O)Nc3ccc(-n4cncn4)cc3)s2)cc1 and O=C(Nc1ccc(Cl)cc1)c1ccc(C(=O)Nc2ccc(-n3cncn3)cc2)s1 cannot be ordered by IC50: at least 40 µM for the first, 1 to 40 µM for the second.

COc1ccc(C(=O)Nc2ccc(C(=O)Nc3ccc(-c4nc[nH]n4)c(F)c3)s2)c(C)c1 and COc1ccc(NC(=O)c2ccc(C(=O)Nc3ccc(-c4nnc[nH]4)cc3)s2)c(C)c1 cannot be ordered by IC50: at most 1 µM for the first, at most 1 µM for the second.

CC(C)[C@@H](CO)NC(=O)c1ccc(C(=O)Nc2ccc(-n3cncn3)cc2)s1 and O=C(NC[C@@H]1CCNC1)c1ccc(C(=O)Nc2ccc(-n3cncn3)cc2)s1 cannot be ordered by IC50: at least 40 µM for the first, at least 40 µM for the second.

O=C(Nc1ccc(-n2cncn2)cc1)c1ccc(C(=O)Nc2nc3c(s2)CCCC3)s1 and COc1cccc(NC(=O)c2ccc(C(=O)Nc3ccc(-n4cncn4)cc3)s2)c1OC fall in the same range of IC50: 1 to 40 µM for the first, 1 to 40 µM for the second.

COc1ccc(C(=O)Nc2ccc(C(=O)N3CCC(c4ccncc4)C3)o2)c(C)c1 (stereo not drawn) and COc1ccc(NC(=O)c2ccc(C(=O)Nc3ccc(N4CCN(C)CC4)cc3)s2)c(C)c1 cannot be ordered by IC50: at least 40 µM for the first, at least 40 µM for the second.
